Laboratory results published in patent publication US11020375B2, “Edaravone dosage form” (SUZHOU AUZONE BIOLOGICAL TECHNOLOGY CO., LTD, priority 2016, dated 2021).

Tests used:
[1] = Stability studies in simulated gastrointestinal fluids at various pHs; type: physicochemical
Experimental: Simulated gastrointestinal fluids (without enzymes and bile component) were prepared according to the USP methods. SGF (simulated gastric fluid) 1.2 pH (USP) and SIF (Simulating Intestinal fluid) 6.8 pH (USP) and 7.4 pH. To determine the chemical stability of SD formulations, the solutions in miliQ water was prepared and used. SD formulation was dissolved in aforesaid buffer solutions. Samples were collected at the predetermined time interval and filtered through 0.45 μm PVDF syringe filter. All samples were analysed in triplicate by HPLC.

[2] = Screening drug carrier Soluplus and optimizing solid dispersion: solubility of Edaravone by HPLC; type: physicochemical; details: 1%-6% w/v carrier solutions, 24 hours at room temperature (FIG. 2)
Experimental: To separate glass vials, 1%, 2%, 3%, 4%, 5% and 6% w/v solutions of different carriers was added, respectively. An excess amount of Edaravone was added to the above mentioned solutions followed by continuous rotation using a mechanical shaker (Axyos Technologies, Brisbane, Australia) throughout the test for 24 hours at room temperature. After reaching equilibrium, each vial was centrifuged at 3000 rpm for 5 min, and excess insoluble Edaravone was discarded by filtration through 0.45 μm PVDF syringe filter. Subsequently, the filtrates were diluted using methanol. The solubility analysis was performed in triplicate by using the previously developed and validated HPLC method.

CC1=NN(c2ccccc2)C(=O)C1 [Edaravone, 3-methyl-1-phenyl-2-pyrazol-5-one]
stability in biorelevant media ([1]; acidic pH (FIG. 8A)): maintained substantially constant | stability in biorelevant media ([1]; neutral to basic pH (FIG. 8A)): significant degradation | solubility of Edaravone in Soluplus carrier solutions [2]: solubility improvement in concentration-dependent manner
